# In article PMC9741287, “Cytotoxic and Luminescent Properties of Novel Organotin Complexes with Chelating Antioxidant Ligand” (Molecules, 2022):
# Read-outs that look alike come from different tables or passages of the source.
# Tests used:
# [1] = MTT test with HepG2 cells, 48 h; type: cell-based; settings: human, HepG2 cells; HepG2, 48 h incubation, MTT
# Procedure: (§1) Cytotoxic properties of 1 are unusual, so an additional cytotoxicity assay with HepG2 cells was carried out and CC50 values were estimated (Figure 5).
# (§2) The fact that ligand 1 itself has cytotoxic properties can be interpreted as the existence of a pharmacological target, specific to 1. The detection of potential targets for ligand 1 involves research on cell cycle influence and many other assays, and will be carried out in future studies.
# (§3) Figure 5 An effect of compound 1 at concentrations of 0.001–100 µM on the metabolic activity (viability) of HepG2 cells during 48 h incubation in the MTT test.
# [2] = system: HepG2 cells; assay: MTT test with HepG2 cells, 48 h; type: cell-based; settings: HepG2, 48 h
# Procedure: as §1, §2, §3
# [3] = system: HCT116 (human colorectal carcinoma); assay: MTT-test HCT116; type: cell-based
# Procedure: Since the investigated compounds are designed as theranostic and cytostatic agents, their toxic impact was evaluated as a standard MTT-test. Cytotoxicity was studied on four cell lines, i.e.,—HCT116 (human colorectal carcinoma), MCF-7 (human breast cancer), A549 (human lung adenocarcinoma), and WI-38 (human fetal lung fibroblast). Obtained results appear to be unorthodox: as it is known, the introduction of an organotin moiety tends to noticeably increase compounds’ toxicity and more lipophilic ones do it better, but in the presented data pattern turns vice versa (Table 3).
# HCT-116 (colon carcinoma), MCF-7 (breast adenocarcinoma), A-549 (lung adenocarcinoma) cell lines, and WI-38 (cell line composed of fibroblasts) were derived from The European Collection of Authenticated Cell Cultures (ECACC, Salisbury, UK), cultured in DMEM medium (Gibco™, Dublin, Ireland) supplemented with 10% fetal bovine serum (Gibco™, Brasilia, Brazil). The cells were cultured in an incubator at 37 °C in a humidified 5% CO2 atmosphere and subcultured two times a week.
# The toxicity of compounds was studied on cultured cell lines according to standard MTT protocol.
# [4] = molecular target: T1, Soybean lipoxygenase LOX-1B (Glycine max, UniProt P08170); assay: Lipoxygenase inhibition assay; type: biochemical; settings: 3 µL of 1 mM compound in DMSO per 150 µL, 5 min, 20 °C, 234 nm
# T1 sequence (P08170 1-839): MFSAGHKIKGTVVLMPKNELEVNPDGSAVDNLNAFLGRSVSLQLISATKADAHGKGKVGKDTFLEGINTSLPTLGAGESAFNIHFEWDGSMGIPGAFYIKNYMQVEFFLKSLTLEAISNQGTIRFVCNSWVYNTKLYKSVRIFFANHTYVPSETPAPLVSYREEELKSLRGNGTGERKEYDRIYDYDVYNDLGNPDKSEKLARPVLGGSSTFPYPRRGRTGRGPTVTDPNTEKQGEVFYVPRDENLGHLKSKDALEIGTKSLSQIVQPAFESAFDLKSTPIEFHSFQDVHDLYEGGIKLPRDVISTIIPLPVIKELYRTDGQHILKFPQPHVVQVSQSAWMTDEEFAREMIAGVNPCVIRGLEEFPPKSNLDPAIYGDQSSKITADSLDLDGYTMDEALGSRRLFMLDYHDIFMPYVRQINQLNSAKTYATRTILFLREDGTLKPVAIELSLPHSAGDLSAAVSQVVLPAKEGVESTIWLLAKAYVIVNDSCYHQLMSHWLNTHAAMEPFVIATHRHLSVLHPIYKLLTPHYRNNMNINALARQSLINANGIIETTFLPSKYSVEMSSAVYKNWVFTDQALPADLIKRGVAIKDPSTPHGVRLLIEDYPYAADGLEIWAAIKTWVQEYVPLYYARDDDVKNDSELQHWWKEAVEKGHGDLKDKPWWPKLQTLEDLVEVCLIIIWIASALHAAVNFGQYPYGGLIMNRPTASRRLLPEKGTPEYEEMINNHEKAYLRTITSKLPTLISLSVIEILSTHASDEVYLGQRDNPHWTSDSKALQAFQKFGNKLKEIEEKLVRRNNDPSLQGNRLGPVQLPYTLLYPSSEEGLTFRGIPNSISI
# From the text: Lipoxygenases are a group of enzymes catalyzing regioselective oxidation of polyunsaturated fatty acids to corresponding hydroperoxides. […] Soybean lipoxygenase LOX-1B was used as a model enzyme since it is structurally relative to human 5-lipoxygenases. The influence of synthesized compounds 1–7 on the LOX-1B activity was estimated as a formation rate of octadecadienoic acid hydroperoxides (λmax = 234 nm) from the initial acid and was monitored spectrophotometrically (Table 1).
# The lipoxygenase activity was evaluated spectrophotometrically. The concentrations of linoleic acid oxidation products, isomeric hydroperoxides, were measured at λmax = 234 nm (ε = 25,000 L mol^−1 cm^−1) with a 96-well microplate spectrophotometer Multiskan Go (Thermo Fisher Scientific, Waltham, MA, USA). The analyzed solution contained 30 µL borate buffer (pH 9.0), 100 µL linoleic acid (0.45 mM) in borate buffer, and 3 µL 1 mM solution of the test compound in DMSO. The reaction was initiated by the addition of 17 µL of lipoxygenase (500 U) solution in borate buffer. The measurements were performed for 5 min at 20 °C.
# The inhibition rate I (%) of lipoxygenase was determined by the Equations (2) and (3), where A0 is the absorbance of the control solution, and A1 is the absorbance of the reaction mixture in the presence of the tested compound 5 min after the beginning of the reaction. ΔA is the difference between A1 and A0. All experiments were performed in triplicate.
# [5] = Hydrolysis stability at different pH (UV-vis); type: physicochemical; settings: phosphate buffer, pH = 5 and pH = 7; absorbance 250–500 nm
# Procedure: Investigations of potential drug pharmacokinetics are an important part of the evaluation of its potential efficacy and applicability. On the base level, this can be studied in vitro as a hydrolysis stability assay at different pH levels. […] The stability of compounds was estimated as an optical density drop at λ = 250–500 nm at pH = 5 and pH = 7 (Figure 3 and Figure 4).
# The stability of synthesized compounds was estimated spectrophotometrically. To 1.5 mL of either phosphate buffer with pH = 5.0 or phosphate buffer with pH = 7.4, 300 µL of 2 mM test solution in MeOH was added. Then adsorption spectra at λ = 250–500 nm were recorded for 20 h. Graphs were built using OriginPro 2019b.
Structure (SMILES),IC50 [3],I (LOX Inhibition Assay) [4],also measured
"CC(C)(C)c1cc(C(=O)N/N=C/c2ccccc2O)cc(C(C)(C)C)c1O [Compound 1, Di-tert-butyl-4-hydroxy-N′-(2-hydroxybenzylidene)-benzohydrazine]",,,"CC50 at 48 h [1]: 12.4 ± 2 µM; Suppression of vital activity relative to the control ([2]; 3 µM): 25.8 ± 4.0%; Minimal concentration that significantly suppresses vital activity ([2]; MTT): 3 µM; IC50 ([3]; Homo sapiens, HCT-116): 1.7 ± 0.4 µM; inhibition at 1000 µM (stock) ([4]; read-out: I (LOX Inhibition Assay)): 51.7 ± 4.2%; Time after which decomposition (hydrolysis) is seen [5]: approximately 1 h"
"CC(C)(C)c1cc(C2=NN=Cc3ccccc3[O][Sn]([CH3])([CH3])[O]2)cc(C(C)(C)C)c1O [Compound 2, Me2SnL]",2.4 ± 0.8 µM,57.1 ± 4.7%,
"C[CH2][Sn]1([CH2]C)[O]C(c2cc(C(C)(C)C)c(O)c(C(C)(C)C)c2)=NN=Cc2ccccc2[O]1 [Compound 3, Et2SnL]",1.4 ± 0.5 µM,61.1 ± 5.1%,
"CCC[CH2][Sn]1([CH2]CCC)[O]C(c2cc(C(C)(C)C)c(O)c(C(C)(C)C)c2)=NN=Cc2ccccc2[O]1 [Compound 4, Bu2SnL]",10 ± 2.3 µM,47.5 ± 3.8%,
"CC(C)(C)c1cc(C2=NN=Cc3ccccc3[O][Sn]([C](C)(C)C)([C](C)(C)C)[O]2)cc(C(C)(C)C)c1O [Compound 5, Bu^t2SnL]",34.3 ± 14 µM,61.4 ± 5.3%,
"CC(C)(C)c1cc(C2=NN=Cc3ccccc3[O][Sn]([c]3ccccc3)([c]3ccccc3)[O]2)cc(C(C)(C)C)c1O [Compound 6, Ph2SnL]",20 ± 11 µM,44.9 ± 3.7%,
"CC(C)(C)c1cc(C2=NN=Cc3ccccc3[O][Sn]([c]3cc(C(C)(C)C)c(O)c(C(C)(C)C)c3)([c]3cc(C(C)(C)C)c(O)c(C(C)(C)C)c3)[O]2)cc(C(C)(C)C)c1O [Compound 7, (2,6-Di-tert-butylphenol)2SnL]",20.5 ± 6.4 µM,66.0 ± 5.9%,
